Reference: the supplement of paper PMC10307832

Columns and labels:
Assay in all cases: relative viability (nuclei count vs DMSO), 5 days (fraction); higher = more cells survive
NCI-H1975 = test system: NCI-H1975
Outline: (§1)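 Dosing by pin tool came one day after lung cancer cell lines were seeded in 1536-well plates, using either one drug or a fixed anchor-drug dose plus five library-drug doses (not always all listed) in √10 steps. After 5 days, nuclei were counted on 4× images. Relative viability is treated-well nuclei count divided by vehicle-well nuclei count, and values are medians of duplicate plates.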

SW 900 = test system: SW 900
Outline: as §1

LU99A = test system: LU99A
Outline: as §1

HARA = test system: HARA
Outline: as §1

HCC-827 = test system: HCC-827
Outline: as §1

HCC-44 = test system: HCC-44
Outline: as §1

NCI-H2342 = test system: NCI-H2342
Outline: as §1

LXF-289 = test system: LXF-289
Outline: as §1

NCI-H2023 = test system: NCI-H2023
Outline: as §1

HCC-366 = test system: HCC-366
Outline: as §1

LK-2 = test system: LK-2
Outline: as §1

PC-14 = test system: PC-14
Outline: as §1

HCC-15 = test system: HCC-15
Outline: as §1

NCI-H647 = test system: NCI-H647
Outline: as §1

COR-L 105 = test system: COR-L 105
Outline: as §1

COR-L23 = test system: COR-L23
Outline: as §1

NCI-H838 = test system: NCI-H838
Outline: as §1

HOP-62 = test system: HOP-62
Outline: as §1

NCI-H2085 = test system: NCI-H2085
Outline: as §1

CAL-12T = test system: CAL-12T
Outline: as §1

NCI-H522 = test system: NCI-H522
Outline: as §1

LC-2-ad = test system: LC-2-ad
Outline: as §1

NCI-H1944 = test system: NCI-H1944
Outline: as §1

`C=C1C(=O)O[C@@H](CCCCCCCC)[C@@H]1C(=O)O` [C-75] + O=C(c1cc(Cc2n[nH]c(=O)c3ccccc23)ccc1F)N1CCN(C(=O)C2CC2)CC1 [Olaparib] (partner 8 µM) gave a relative viability (NCI-H1975; first compound 0.08 µM) of 0.777, a relative viability (NCI-H1975; first compound 0.253 µM) of 0.817 and a relative viability (NCI-H1975; first compound 0.8 µM) of 0.755. It also gave a relative viability (NCI-H1975; first compound 2.53 µM) of 0.77, a relative viability (NCI-H1975; first compound 8 µM) of 0.741 and a relative viability (SW 900; first compound 0.08 µM) of 0.923. For the same compound, the relative viability (SW 900; first compound 0.253 µM) was 0.945, the relative viability (SW 900; first compound 0.8 µM) was 1.05 and the relative viability (SW 900; first compound 2.53 µM) was 0.803. For the same compound, the relative viability (SW 900; first compound 8 µM) was 0.977, the relative viability (LU99A; first compound 0.08 µM) was 0.255 and the relative viability (LU99A; first compound 0.253 µM) was 0.245. The relative viability (LU99A; first compound 0.8 µM) was 0.25, the relative viability (LU99A; first compound 2.53 µM) was 0.245 and the relative viability (LU99A; first compound 8 µM) was 0.205. It also gave a relative viability (HARA; first compound 0.08 µM) of 0.76, a relative viability (HARA; first compound 0.253 µM) of 0.749 and a relative viability (HARA; first compound 0.8 µM) of 1.04. The relative viability (HARA; first compound 2.53 µM) was 0.803, the relative viability (HARA; first compound 8 µM) was 0.715 and the relative viability (HCC-827; first compound 0.253 µM) was 0.622. For the same compound, the relative viability (HCC-827; first compound 0.8 µM) was 0.595, the relative viability (HCC-827; first compound 8 µM) was 0.657 and the relative viability (HCC-44; first compound 0.08 µM) was 0.998. For the same compound, the relative viability (HCC-44; first compound 0.253 µM) was 0.944, the relative viability (HCC-44; first compound 0.8 µM) was 0.962 and the relative viability (HCC-44; first compound 2.53 µM) was 0.905. For the same compound, the relative viability (HCC-44; first compound 8 µM) was 0.919, the relative viability (NCI-H2342; first compound 0.08 µM) was 0.503 and the relative viability (NCI-H2342; first compound 0.253 µM) was 0.49. The relative viability (NCI-H2342; first compound 0.8 µM) was 0.374, the relative viability (NCI-H2342; first compound 2.53 µM) was 0.38 and the relative viability (NCI-H2342; first compound 8 µM) was 0.454. It also gave a relative viability (LXF-289; first compound 0.08 µM) of 1.05, a relative viability (LXF-289; first compound 0.253 µM) of 1.11 and a relative viability (LXF-289; first compound 0.8 µM) of 1.01. For the same compound, the relative viability (LXF-289; first compound 2.53 µM) was 0.992, the relative viability (LXF-289; first compound 8 µM) was 1.06 and the relative viability (NCI-H2023; first compound 0.08 µM) was 0.529. It also gave a relative viability (NCI-H2023; first compound 0.253 µM) of 0.579, a relative viability (NCI-H2023; first compound 0.8 µM) of 0.436 and a relative viability (NCI-H2023; first compound 8 µM) of 0.395. It also gave a relative viability (HCC-366; first compound 0.08 µM) of 0.349, a relative viability (HCC-366; first compound 0.253 µM) of 0.49 and a relative viability (HCC-366; first compound 0.8 µM) of 0.341. For the same compound, the relative viability (HCC-366; first compound 2.53 µM) was 0.356, the relative viability (HCC-366; first compound 8 µM) was 0.347 and the relative viability (LK-2; first compound 0.08 µM) was 0.674. It also gave a relative viability (LK-2; first compound 0.253 µM) of 0.84, a relative viability (LK-2; first compound 0.8 µM) of 0.64 and a relative viability (LK-2; first compound 2.53 µM) of 0.596. It also gave a relative viability (LK-2; first compound 8 µM) of 0.502, a relative viability (PC-14; first compound 0.08 µM) of 0.276 and a relative viability (PC-14; first compound 0.253 µM) of 0.257. It also gave a relative viability (PC-14; first compound 0.8 µM) of 0.296, a relative viability (PC-14; first compound 2.53 µM) of 0.252 and a relative viability (PC-14; first compound 8 µM) of 0.308. It also gave a relative viability (HCC-15; first compound 0.08 µM) of 0.686, a relative viability (HCC-15; first compound 0.253 µM) of 0.752 and a relative viability (HCC-15; first compound 0.8 µM) of 0.672. It also gave a relative viability (HCC-15; first compound 2.53 µM) of 0.612, a relative viability (HCC-15; first compound 8 µM) of 0.785 and a relative viability (NCI-H647; first compound 0.08 µM) of 0.522. For the same compound, the relative viability (NCI-H647; first compound 0.253 µM) was 0.727, the relative viability (NCI-H647; first compound 0.8 µM) was 0.452 and the relative viability (NCI-H647; first compound 2.53 µM) was 0.495. For the same compound, the relative viability (NCI-H647; first compound 8 µM) was 0.354, the relative viability (COR-L 105; first compound 0.08 µM) was 0.719 and the relative viability (COR-L 105; first compound 0.253 µM) was 0.75. The relative viability (COR-L 105; first compound 0.8 µM) was 0.668, the relative viability (COR-L 105; first compound 2.53 µM) was 0.62 and the relative viability (COR-L 105; first compound 8 µM) was 0.523. It also gave a relative viability (COR-L23; first compound 0.08 µM) of 0.353, a relative viability (COR-L23; first compound 0.253 µM) of 0.216 and a relative viability (COR-L23; first compound 0.8 µM) of 0.284. For the same compound, the relative viability (COR-L23; first compound 2.53 µM) was 0.325, the relative viability (COR-L23; first compound 8 µM) was 0.319 and the relative viability (NCI-H838; first compound 0.08 µM) was 0.778. The relative viability (NCI-H838; first compound 0.253 µM) was 0.757, the relative viability (NCI-H838; first compound 0.8 µM) was 0.738 and the relative viability (NCI-H838; first compound 2.53 µM) was 0.725. The relative viability (NCI-H838; first compound 8 µM) was 0.654, the relative viability (HOP-62; first compound 0.08 µM) was 0.532 and the relative viability (HOP-62; first compound 0.253 µM) was 0.5. The relative viability (HOP-62; first compound 0.8 µM) was 0.321, the relative viability (HOP-62; first compound 2.53 µM) was 0.372 and the relative viability (HOP-62; first compound 8 µM) was 0.393. It also gave a relative viability (NCI-H2085; first compound 0.08 µM) of 0.766, a relative viability (NCI-H2085; first compound 0.253 µM) of 0.61 and a relative viability (NCI-H2085; first compound 0.8 µM) of 0.753. For the same compound, the relative viability (NCI-H2085; first compound 2.53 µM) was 0.681, the relative viability (NCI-H2085; first compound 8 µM) was 0.725 and the relative viability (CAL-12T; first compound 0.08 µM) was 0.774. It also gave a relative viability (CAL-12T; first compound 0.253 µM) of 0.796, a relative viability (CAL-12T; first compound 0.8 µM) of 0.788 and a relative viability (CAL-12T; first compound 2.53 µM) of 0.766. It also gave a relative viability (CAL-12T; first compound 8 µM) of 0.793, a relative viability (NCI-H522; first compound 0.08 µM) of 0.592 and a relative viability (NCI-H522; first compound 0.253 µM) of 0.733. The relative viability (NCI-H522; first compound 0.8 µM) was 0.662, the relative viability (NCI-H522; first compound 2.53 µM) was 0.66 and the relative viability (NCI-H522; first compound 8 µM) was 0.547. It also gave a relative viability (LC-2-ad; first compound 0.08 µM) of 0.683, a relative viability (LC-2-ad; first compound 0.253 µM) of 0.751 and a relative viability (LC-2-ad; first compound 0.8 µM) of 0.343. It also gave a relative viability (LC-2-ad; first compound 2.53 µM) of 0.596, a relative viability (LC-2-ad; first compound 8 µM) of 0.668 and a relative viability (NCI-H1944; first compound 0.08 µM) of 0.381. For the same compound, the relative viability (NCI-H1944; first compound 0.253 µM) was 0.419, the relative viability (NCI-H1944; first compound 0.8 µM) was 0.353 and the relative viability (NCI-H1944; first compound 2.53 µM) was 0.392. It also gave a relative viability (NCI-H1944; first compound 8 µM) of 0.428.
